{"source": "paper PMC8851282", "about": "“Senolysis induced by 25-hydroxycholesterol targets CRYAB in multiple cell types” (iScience, 2022)", "key": {"SCs": {"system": "SCs", "experiment": "Cell viability assay (cell counting kit-8) of senescent and non-senescent SCs treated with inhibitors", "type": "cell-based, mouse", "method": "(§1) Figure 3 25HC is a senolytic in multiple muscle cell types (A) Targets, compounds, and mechanisms. (B) Timeline of cell viability assay with inhibitors. Cells were pre-cultured for 24 h, treated with Doxo for 24 h, and then treated with inhibitors. Cell viability was analyzed from day 0–7. (C–E) Effects of inhibitors on viability of FAPs, SCs, and HSMMs. Cells were treated with inhibitors at the indicated concentrations. Cell viability was analyzed on day 3 (HSMMs) or 5 (FAPs and SCs). Blue and red dots indicate non-senescent (NS) and senescent (SEN), respectively. The average value at 0 μM for each group was set at 100% cell viability. p values versus NS were obtained using unpaired two-tailed Student’s t test. ∗p < 0.05, ∗∗p < 0.01, and ∗∗∗p < 0.001.\nFigure 4 EC50 fitted curves (triplicates) of inhibitor effects at 3 and 7 days in FAPS and SCs EC50 was defined as the concentration of inhibitors that provokes a response halfway between baseline and maximum senolytic activity. EC50 values were determined by four- parameter logistic modeling using GraphPad Prism 8.0.\nHind limb muscles were digested in DMEM containing 0.5% (w/v) collagenase type II (Worthington) for 90 min at 37 °C with trituration and passed through a 40-μm nylon mesh. Erythrocytes were eliminated by treating with BD Pharm Lyse (BD Biosciences). Cells were resuspended in a washing buffer of PBS with 2% FBS and stained with antibodies for 30 min at 4 °C as described ([Kamizaki et al., 2017]). FAPs and SCs were isolated from the suspension by FACS (Aria II, BD Biosciences) using anti-CD31, CD45, Sca-1, PDGFR and VCAM1 antibodies. FAPs were identified as Sca1/PDGFR-positive and CD31-, CD45- and VCAM1-negative cells ([Uezumi et al., 2010]). SCs were identified as VCAM1-positive and CD31-, CD45-, Sca-1 and PDGFR-negative cells ([Liu et al., 2015]).\n(§2) All experiments were performed in incubators at 37 °C, 3% O2 and 5% CO2. Senescence was induced by treatment with either Doxo (250 nM for 24 h) ([Demaria et al., 2017]) or X-irradiation (10 Gy) ([Limbad et al., 2020]). For cell culture studies using 25HC, it was used at the indicated concentrations in the media.\n(§3) FAPs and SCs were cultured on Matrigel-coated dishes (BD Biosciences) in growth medium (GM) consisting of DMEM plus 10% FBS, 1% penicillin-streptomycin and 10% MyoCult (STEMCELL Technologies) for 7 days. Human myogenic cell HSMMs (Lonza) were maintained according to the manufacturer’s instructions with SkGM-2 medium (Lonza).\n(§4) Cell viability was assessed using a cell counting kit-8 from Dojindo Molecular Technologies, Inc (Cat CK04-20). Cells were incubated with culture media + 10% kit cell viability reagent, 150 μL/well in 96-well plates for 2 h. The supernatant was transferred to a new 96-well plate and absorbance read at 450 nm as recommended in the product datasheet."}, "[1]": {"system": "human skeletal muscle myoblasts (HSMMs)", "experiment": "Cell viability assay (cell counting kit-8) of senescent and non-senescent HSMMs treated with inhibitors", "type": "cell-based", "conditions": "for IC50: Homo sapiens, Myoblast, HSMM", "method": "as §1, §2, §3, §4"}, "[2]": {"system": "human lung fibroblasts (IMR-90)", "experiment": "Cell viability assay of NS and SEN IMR-90 cells treated with CRYAB and HMOX1 inhibitors", "type": "cell-based", "conditions": "250 nM Doxo-induced senescence; viability after 72 h; 25HC at 10 or 50 μM", "method": "The average value of DMSO was set at 1. (B and D) Effects of CRYAB and HMOX1 inhibitors on DMSO-treated NS or Doxo-treated SEN cells; (B) mDFs, (D) IMR-90s. Cells were treated with the inhibitors at the indicated concentrations. Cell viability was measured after 72 h. (C) IMR-90 qRT-PCR. For qPCR: mean +/- SE, n =4, ∗p< 0.05, ∗∗p< 0.01, ∗∗∗p<0.001, ∗∗∗∗p<0.0001 by Dunnett’s multiple comparisons test vs DMSO. For cell viability assays: mean +/- SE, n =3, ∗∗p< 0.01, ∗∗∗p<0.001, ∗∗∗∗p<0.0001 vs 0 mM by student’s t test.\nas §2\nIMR-90 cells were cultured in DMEM with 10% FBS. […]\nCell viability was assessed using a cell counting kit-8 from Dojindo Molecular Technologies, Inc (Cat CK04-20). […] The supernatant was transferred to a new 96-well plate and absorbance read at 450 nm as recommended in the product datasheet."}, "[3]": {"system": "human renal proximal tubule epithelial cells (hRPTECs)", "experiment": "Cell viability assay of NS and Doxo- or IR-induced senescent hRPTECs treated with 25HC", "type": "cell-based", "conditions": "5 μM after 9 days; Doxo or IR induced senescence", "method": "Figure 7 25HC treatment timeline and its effects on NS and SEN hCMECs, hLSCs, hRPTECs, and hACs All cell types were treated with either DMSO, 250 nM Doxo or 10-Gy IR at the times shown. 25HC treatment was started 24 h after Doxo or IR treatment. Cell viability was measured every 3–5 days for 15 days. Optimal treatment times for maximum senolysis are shown for each cell type: day 15 for hCMECs, day 3 for hLSCs, day 9 for hRPTECs and day 12 for hACs. For qRT-PCR: mean ± SE, n =4, ∗p< 0.05, ∗∗p< 0.01, ∗∗∗p<0.001, ∗∗∗∗p<0.0001 by Dunnett’s multiple comparisons test vs DMSO or NS, For cell viability assays: mean ± SE, n =3, ∗∗p< 0.01, ∗∗∗p<0.001, ∗∗∗∗p<0.0001 vs 0 mM by student’s t test.\nAll experiments were performed in incubators at 37 °C, 3% O2 and 5% CO2. […]\nCell viability was assessed using a cell counting kit-8 from Dojindo Molecular Technologies, Inc (Cat CK04-20). […] The supernatant was transferred to a new 96-well plate and absorbance read at 450 nm as recommended in the product datasheet. […]\nSupplementary Fig. 12 (related to Fig. 7) | 25HC treatment of human renal epithelial cells (a) 25HC effects on DMSO- or Doxo-treated hRPTECs at various times. […] Cel l vi abi l i ty was measured every 3–5 days until 15 days. […]\nCells were NS or treated with 10-Gy X-rays. […] Cell viability was measured every 3–5 days until 15 days. […]"}, "gastrocnemius muscle": {"system": "gastrocnemius muscle", "conditions": "ip, 50 mg/kg, 120 h"}}, "data": [{"smiles": "C[C@H](CCCC(C)(C)O)[C@H]1CC[C@H]2[C@@H]3CC=C4C[C@@H](O)CC[C@]4(C)[C@H]3CC[C@]12C", "note": "[25HC, 25-hydroxycholesterol]", "values": [{"measurement": "viability of senescent versus non-senescent SCs", "setting": "SCs; Doxo-induced senescence, viability on day 5", "result": "decreased the viability of senescent SCs"}, {"measurement": "IC50", "setting": "SCs; Mus musculus, 168 h, SCs, 7 days in culture", "result": 3.7, "unit": "µM"}, {"measurement": "viability of senescent versus non-senescent HSMMs", "setting": "[1]; Doxo-induced senescence, viability on day 3", "result": "significantly decreased cell viability"}, {"measurement": "IC50", "setting": "[1]; 72 h, 3 days in culture", "result": 7.2, "unit": "µM"}, {"measurement": "IC50", "setting": "[1]; 168 h, 7 days in culture", "result": 3.7, "unit": "µM"}, {"measurement": "senolysis in IMR-90 cells", "setting": "[2]", "result": "induced significant senolysis"}, {"measurement": "senolysis in hRPTECs", "setting": "[3]", "result": "induced significant senolysis"}, {"measurement": "muscle mass restored (gastrocnemius wet weight normalized to body weight)", "setting": "gastrocnemius muscle", "result": "~23", "unit": "%"}]}]}
